{"source": "paper PMC8284453", "about": "(Antimicrobial Agents and Chemotherapy, 2021)", "key": {"E. coli ESBL4 (CTX-M-15)": {"system": "E. coli ESBL4 (CTX-M-15)", "assay": "24-h time-kill assay", "assay_type": "cell-based", "method_in_brief": "(§1)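 Bacteria at 5 × 10^5 CFU/ml in CAMHB, incubated at 37°C with shaking at 200 rpm. Viable counts determined at 0, 2, 4, 6, 8 and 24 h by 0.5 log10 serial dilution with overnight regrowth; quantification limit 2 log10 CFU/ml.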"}, "[1]": {"system": "K. pneumoniae ATCC BAA-1705 (KPC-2)", "assay": "24-h time-kill assay", "assay_type": "cell-based", "details": "Klebsiella pneumoniae, ATCCBAA1705; lowest concentration with ≥3-log10 CFU/ml reduction at 24 h; read-out: MBC", "method_in_brief": "as §1"}, "[2]": {"system": "K. pneumoniae 752286 (OXA-48)", "assay": "24-h time-kill assay", "assay_type": "cell-based", "details": "Klebsiella pneumoniae; lowest concentration with ≥3-log10 CFU/ml reduction at 24 h; read-out: MBC", "method_in_brief": "as §1"}, "[3]": {"system": "Enterobacterales expressing class A ESBLs", "assay": "organism not typed", "assay_type": "cell-based, E. coli, K. pneumoniae"}, "[4]": {"system": "isogenic strains of E. coli expressing Ambler class A, B, C, and D enzymes", "assay": "microbe, parasite or virus in culture", "assay_type": "cell-based, Escherichia coli", "details": "for Fold increase in MIC compared to vector control: inhibitor fixed at 4 μg/ml"}, "[5]": {"system": "Enterobacterales expressing class C cephalosporinases", "assay": "organism not typed"}, "[6]": {"system": "K. pneumoniae ATCC BAA-1705 (KPC-2)", "assay": "Broth microdilution MIC", "assay_type": "cell-based", "details": "Klebsiella pneumoniae, ATCCBAA1705"}, "[7]": {"system": "Enterobacterales expressing class A carbapenemases (KPC)", "assay": "organism not typed", "assay_type": "cell-based, K. pneumoniae, E. coli, E. cloacae, Klebsiella oxytoca"}, "[8]": {"details": "25 isolates, BLI fixed at 4 μg/ml, AMC 2:1"}}, "note": "Like-named read-outs stand apart in the source and are kept apart here."}
{"smiles": "C[C@@H](O)[C@H]1C(=O)N2C(C(=O)O)=C(SC3CN(C4=NCCS4)C3)[C@H](C)[C@H]12", "note": "[Tebipenem]", "values": [{"measurement": "MBC", "setting": "E. coli ESBL4 (CTX-M-15); Escherichia coli, lowest concentration with ≥3-log10 CFU/ml reduction at 24 h, read-out: MBC", "result": 0.06, "unit": "µg/mL"}, {"measurement": "outcome of 24-h time-kill assay", "setting": "E. coli ESBL4 (CTX-M-15); Fig. 3a, CTB 2 μg/ml with BLI at 4 μg/ml, CTB alone 8 μg/ml, amoxicillin 8/clavulanic acid 4 μg/ml, penems 2 μg/ml", "result": "bactericidal activity"}, {"measurement": "MBC", "setting": "[1]", "result": 32, "unit": "µg/mL"}, {"measurement": "MBC", "setting": "[2]", "result": "> 32", "unit": "µg/mL"}, {"measurement": "MIC50", "setting": "[3]", "result": 0.03, "unit": "µg/mL"}, {"measurement": "MIC90", "setting": "[3]", "result": 0.06, "unit": "µg/mL"}, {"measurement": "MIC range", "setting": "[3]; [8]", "result": "≤0.016 to 0.12", "unit": "µg/mL"}, {"measurement": "Fold increase in MIC compared to vector control", "setting": "[4]; E. coli expressing ACT-17 (class C)", "result": 4}, {"measurement": "Fold increase in MIC compared to vector control", "setting": "[4]; E. coli expressing CMY-2 (class C)", "result": 4}, {"measurement": "Fold increase in MIC compared to vector control", "setting": "[4]; E. coli expressing CMY-42 (class C)", "result": 16}, {"measurement": "Fold increase in MIC compared to vector control", "setting": "[4]; E. coli expressing CTX-M-15 (class A)", "result": 4}, {"measurement": "Fold increase in MIC compared to vector control", "setting": "[4]; E. coli expressing GES-5 (class A)", "result": 512}, {"measurement": "Fold increase in MIC compared to vector control", "setting": "[4]; E. coli expressing KPC-3 D179Y (class A)", "result": 8}, {"measurement": "Fold increase in MIC compared to vector control", "setting": "[4]; E. coli expressing NDM-1 (class B)", "result": "2,048"}, {"measurement": "Fold increase in MIC compared to vector control", "setting": "[4]; E. coli expressing OXA-23 (class D)", "result": 128}, {"measurement": "Fold increase in MIC compared to vector control", "setting": "[4]; E. coli expressing OXA-48 (class D)", "result": 256}, {"measurement": "Fold increase in MIC compared to vector control", "setting": "[4]; E. coli expressing OXA-163 (class D)", "result": 32}, {"measurement": "Fold increase in MIC compared to vector control", "setting": "[4]; E. coli expressing OXA-181 (class D)", "result": 256}, {"measurement": "Fold increase in MIC compared to vector control", "setting": "[4]; E. coli expressing P99/AmpC (class C)", "result": 8}, {"measurement": "Fold increase in MIC compared to vector control", "setting": "[4]; E. coli expressing PER-1 (class A)", "result": 4}, {"measurement": "Fold increase in MIC compared to vector control", "setting": "[4]; E. coli expressing SHV-5 (class A)", "result": 4}, {"measurement": "Fold increase in MIC compared to vector control", "setting": "[4]; E. coli expressing SHV-12 (class A)", "result": 4}, {"measurement": "Fold increase in MIC compared to vector control", "setting": "[4]; E. coli expressing TEM-10 (class A), modal MIC, 4 replicates", "result": 4}, {"measurement": "Fold increase in MIC compared to vector control", "setting": "[4]; E. coli expressing VEB-9 (class A)", "result": 2}, {"measurement": "MIC", "setting": "[4]; Escherichia coli, read-out: Vector control MIC", "result": 0.016, "unit": "µg/mL"}, {"measurement": "MIC50", "setting": "[5]", "result": 0.06, "unit": "µg/mL"}, {"measurement": "MIC90", "setting": "[5]", "result": 0.5, "unit": "µg/mL"}, {"measurement": "MIC", "setting": "[6]", "result": 32, "unit": "µg/mL"}, {"measurement": "MIC50", "setting": "[7]", "result": "≥ 64", "unit": "µg/mL"}, {"measurement": "MIC90", "setting": "[7]", "result": "≥ 64", "unit": "µg/mL"}, {"measurement": "MIC50", "setting": "[7]; [8]", "result": "≥64", "unit": "µg/mL"}, {"measurement": "MIC90", "setting": "[7]; [8]", "result": "≥64", "unit": "µg/mL"}, {"measurement": "MIC", "setting": "[7]; E. cloacae 847426 (KPC)", "result": "≥ 64", "unit": "µg/mL"}, {"measurement": "MIC", "setting": "[7]; E. cloacae 847429 (KPC)", "result": "≥ 64", "unit": "µg/mL"}, {"measurement": "MIC", "setting": "[7]; E. cloacae OIMGH49 (p99 AmpC, ACT-2, KPC-2, TEM-1)", "result": 32, "unit": "µg/mL"}, {"measurement": "MIC", "setting": "[7]; E. coli 786978 (KPC)", "result": "≥ 64", "unit": "µg/mL"}, {"measurement": "MIC", "setting": "[7]; K. oxytoca 847537 (KPC)", "result": "≥ 64", "unit": "µg/mL"}, {"measurement": "MIC", "setting": "[7]; K. oxytoca 847539 (KPC)", "result": 8, "unit": "µg/mL"}, {"measurement": "MIC", "setting": "[7]; K. pneumoniae 155140 (AmpC, KPC-2, SHV-12, TEM-1)", "result": "≥ 64", "unit": "µg/mL"}, {"measurement": "MIC", "setting": "[7]; K. pneumoniae 845661 (KPC)", "result": "≥ 64", "unit": "µg/mL"}, {"measurement": "MIC", "setting": "[7]; K. pneumoniae 845662 (KPC)", "result": "≥ 64", "unit": "µg/mL"}, {"measurement": "MIC", "setting": "[7]; K. pneumoniae 845665 (KPC)", "result": "≥ 64", "unit": "µg/mL"}, {"measurement": "MIC", "setting": "[7]; K. pneumoniae 845667 (KPC)", "result": "≥ 64", "unit": "µg/mL"}, {"measurement": "MIC", "setting": "[7]; K. pneumoniae 845670 (KPC)", "result": 32, "unit": "µg/mL"}, {"measurement": "MIC", "setting": "[7]; K. pneumoniae 845904 (KPC)", "result": "≥ 64", "unit": "µg/mL"}, {"measurement": "MIC", "setting": "[7]; K. pneumoniae 847204 (KPC)", "result": "≥ 64", "unit": "µg/mL"}, {"measurement": "MIC", "setting": "[7]; K. pneumoniae 847375 (KPC)", "result": "≥ 64", "unit": "µg/mL"}, {"measurement": "MIC", "setting": "[7]; K. pneumoniae 847378 (KPC)", "result": "≥ 64", "unit": "µg/mL"}, {"measurement": "MIC", "setting": "[7]; K. pneumoniae 847379 (KPC)", "result": 16, "unit": "µg/mL"}, {"measurement": "MIC", "setting": "[7]; K. pneumoniae 847383 (KPC)", "result": "≥ 64", "unit": "µg/mL"}, {"measurement": "MIC", "setting": "[7]; K. pneumoniae 847384 (KPC)", "result": "≥ 64", "unit": "µg/mL"}, {"measurement": "MIC", "setting": "[7]; K. pneumoniae 847387 (KPC)", "result": "≥ 64", "unit": "µg/mL"}, {"measurement": "MIC", "setting": "[7]; K. pneumoniae 847747 (KPC)", "result": "≥ 64", "unit": "µg/mL"}, {"measurement": "MIC", "setting": "[7]; K. pneumoniae 848832 (KPC)", "result": "≥ 64", "unit": "µg/mL"}, {"measurement": "MIC", "setting": "[7]; K. pneumoniae 848844 (KPC)", "result": "≥ 64", "unit": "µg/mL"}, {"measurement": "MIC", "setting": "[7]; K. pneumoniae 897067 (KPC)", "result": 32, "unit": "µg/mL"}, {"measurement": "MIC", "setting": "[7]; K. pneumoniae UMM (KPC-2, SHV-5, TEM-1)", "result": 32, "unit": "µg/mL"}]}
